The target of assay [1] is T1, AHR (Homo sapiens, UniProt P35869).
T1 construct: endogenous in cells; host or cells: HepG2 (human), transfected with a DRE-luciferase reporter only
T1 sequence (P35869 11-848): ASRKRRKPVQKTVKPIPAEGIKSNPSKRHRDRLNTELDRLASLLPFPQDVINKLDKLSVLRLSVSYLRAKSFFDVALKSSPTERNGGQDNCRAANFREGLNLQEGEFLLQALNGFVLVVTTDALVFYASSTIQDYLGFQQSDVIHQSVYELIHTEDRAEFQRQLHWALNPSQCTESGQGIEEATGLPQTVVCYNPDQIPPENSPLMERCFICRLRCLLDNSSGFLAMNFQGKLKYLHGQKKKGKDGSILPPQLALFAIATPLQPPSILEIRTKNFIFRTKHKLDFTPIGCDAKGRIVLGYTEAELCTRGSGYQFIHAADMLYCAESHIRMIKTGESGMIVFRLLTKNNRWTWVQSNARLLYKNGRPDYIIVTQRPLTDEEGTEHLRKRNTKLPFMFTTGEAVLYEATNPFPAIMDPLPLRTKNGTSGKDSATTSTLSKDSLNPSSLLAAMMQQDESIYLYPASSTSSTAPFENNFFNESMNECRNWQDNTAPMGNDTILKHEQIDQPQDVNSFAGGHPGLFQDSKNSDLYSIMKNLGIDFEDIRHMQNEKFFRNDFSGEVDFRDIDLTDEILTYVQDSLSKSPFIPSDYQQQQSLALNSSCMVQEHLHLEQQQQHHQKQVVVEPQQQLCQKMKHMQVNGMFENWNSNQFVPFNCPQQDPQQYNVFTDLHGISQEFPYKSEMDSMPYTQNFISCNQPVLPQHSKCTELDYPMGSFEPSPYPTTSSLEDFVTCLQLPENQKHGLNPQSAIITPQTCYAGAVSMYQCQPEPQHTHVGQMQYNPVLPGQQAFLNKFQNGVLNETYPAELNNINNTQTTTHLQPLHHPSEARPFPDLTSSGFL
As to the kind of experiment: DRE-Luciferase Reporter Assay, HepG2 (agonist). In kind it is cell-based. The note with it: read-out: DRE-Luc HepG2 - Agonist: Average EC50. On the procedure:
DRE-Luciferase Reporter Assay
AHR binds to Dioxin Responsive Elements (DRE) upstream of genes that it activates. One measure of AHR activity is activation of a reporter gene, such as luciferase, downstream of one or multiple DRE elements. Luciferase activity reflects activation and inhibition of AHR in the cells expressing this reporter.
Murine Hepa1-6 or Hepa-1c1c7 or other murine cell line with a DRE-luciferase reporter either stably or transiently transfected are plated in media in plates (96-well, 384-well or other plates) and incubated overnight at 37 C in a CO2 incubator. Likewise, human HepG2 or other human cell line with a DRE-luciferase reporter either stably or transiently transfected are plated in media in plates (96-well, 384-well or other plates) and incubated overnight at 37 C in a CO2 incubator.
(§1) The next day, an AHR agonist compound is added. Cells are incubated for 6, 16 or 24 hours or another time point and then lysed for determination of luciferase activity as a read-out of the AHR activation. Luciferase can be measured with a commercial kit such as the Promega Luciferase kit or any kit or reagents that provide the luciferin substrate for measuring luciferase activity. The level of luciferase with only activating ligand (e.g. such as TCDD, kynurenine, ITE (2-(1H-indole-3-ylcarbonyl)-4-thiazolecarboxylic methyl ester), VAF347, BNF (beta-naphthoflavone), ICZ (6-formylindolo(3,2-b) carbazole or other AHR ligands) added is the maximum signal while the luciferase with no ligand is the minimum signal. EC50s can be determined as the concentration which activates half of the maximum luciferase activity.

Assay [2] concerns the target T2, AHR (Mus musculus, UniProt P30561).
T2 sequence (P30561 1-848 F348L/P471L): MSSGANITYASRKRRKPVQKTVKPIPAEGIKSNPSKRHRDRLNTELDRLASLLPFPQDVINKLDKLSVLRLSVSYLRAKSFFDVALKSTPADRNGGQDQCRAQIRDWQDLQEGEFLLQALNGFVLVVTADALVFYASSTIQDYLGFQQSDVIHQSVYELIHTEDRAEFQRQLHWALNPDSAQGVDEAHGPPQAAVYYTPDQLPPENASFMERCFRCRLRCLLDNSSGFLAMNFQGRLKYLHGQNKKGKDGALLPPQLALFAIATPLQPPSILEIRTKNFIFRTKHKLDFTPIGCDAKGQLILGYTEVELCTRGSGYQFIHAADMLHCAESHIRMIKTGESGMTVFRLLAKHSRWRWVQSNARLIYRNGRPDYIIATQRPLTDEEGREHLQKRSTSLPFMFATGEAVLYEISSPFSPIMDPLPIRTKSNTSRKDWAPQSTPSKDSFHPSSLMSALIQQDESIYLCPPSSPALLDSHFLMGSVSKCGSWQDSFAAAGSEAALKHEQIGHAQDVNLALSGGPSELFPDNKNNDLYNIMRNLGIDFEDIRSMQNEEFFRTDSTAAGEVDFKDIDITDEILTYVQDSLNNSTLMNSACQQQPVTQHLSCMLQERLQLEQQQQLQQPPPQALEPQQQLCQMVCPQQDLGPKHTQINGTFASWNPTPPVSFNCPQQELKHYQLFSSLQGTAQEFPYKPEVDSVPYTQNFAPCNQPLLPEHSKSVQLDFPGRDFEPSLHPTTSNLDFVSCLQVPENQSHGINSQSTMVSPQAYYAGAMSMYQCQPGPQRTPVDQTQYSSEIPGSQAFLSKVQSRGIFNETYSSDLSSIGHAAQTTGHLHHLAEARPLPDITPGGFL
The experiment in a line: P450 CYP1A1 Luciferase Assay, Hepa1.6 (agonist). The note with it: Hepa1.6, Table 2. The assay is classed as cell-based, murine. On the procedure:
P450 CYP1A1 Luciferase Assay
AHR binds to Dioxin Responsive Elements (DRE) upstream of genes that it activates. One measure of AHR activity is P450 CYP1A1 protein levels determined by measuring CYP1A1 enzyme activity using a luminogenic CYP1A1 luciferin-based substrate. Luciferase activity will reflect CYP1A1 activity resulting from activation of AHR in the cells.
Murine Hepa1-6 or Hepa-1c1c7 or other murine cell line, human HepG2 or other human cell line are plated in media (96-well, 384-well or other plates) and incubated overnight at 37 C in a CO2 incubator.
as §1, with “lysed and incubated with a CYP1A1 luciferase-based substrate (e.g. Luciferin-CEE)” for “lysed”, “3, 6, or 12 hours of another time point. Determination” for “determination”, “CYP1A1 enzyme activity” for “the AHR activation. Luciferase”, “P450 Glo CYP1A1 detection reagent” for “Luciferase kit”, “provide” for “provide the luciferin substrate”

This is an account of results in patent US12030876B2, “Aryl hydrocarbon receptor (AHR) agonists and uses thereof” (Ikena Oncology, Inc., priority 2019, dated 2024).

Each structure is given as a SMILES string. Read-outs that look alike come from different tables or passages of the source.

On to `O=[N+]([O-])c1cccc(-c2csc(Nc3cccc(C(F)(F)F)c3)n2)c1` [Compound P-1], for which the 50% effective concentration (EC50) at AHR [1] (HepG2, Table 2) was under 10 nM; at AHR [2], 10 to 100 nM.
With `O=[N+]([O-])c1ccc(-c2csc(Nc3cccc(C(F)(F)F)c3)n2)cc1` [Compound P-3], the EC50 on AHR [1] (HepG2, Table 2) was under 10 nM; on AHR [2], over 1000 nM.
In the same order, the values of `FC(F)(F)c1cccc(Nc2nc(-c3cccc(Br)c3)cs2)c1` [Compound P-4] are under 10 nM and 100 to 1000 nM.
For `Clc1cccc(Nc2nc(-c3cccc(Cl)c3)cs2)c1` [Compound P-5] the same measures were under 10 nM and over 1000 nM.
For `FC(F)(F)c1cccc(Nc2nc(-c3ccncc3)cs2)c1` [Compound P-6] the same measures were under 10 nM and over 1000 nM.
Turning to `Clc1cccc(-c2csc(Nc3ccccc3)n2)c1` [Compound P-7], the 50% effective concentration (EC50) at AHR [1] (HepG2, Table 2) is under 10 nM; at AHR [2], over 1000 nM.
For `FC(F)(F)c1cccc(Nc2nc(-c3cccnc3)cs2)c1` [Compound P-8] the same measures were under 10 nM and 100 to 1000 nM.
For `FC(F)(F)c1cccc(Nc2nc(-c3ccccn3)cs2)c1` [Compound P-9] the same measures were under 10 nM and over 1000 nM.
In the same order, the values of `FC(F)(F)c1cccc(Nc2nc(-c3ccc(Cl)cc3)cs2)c1` [Compound P-10] are 10 to 100 nM and over 1000 nM.
`COc1cccc(-c2csc(Nc3cccc(C(F)(F)F)c3)n2)c1` [Compound P-11]: the half-maximal effective concentration (EC50) at AHR [1] (HepG2, Table 2) was 10 to 100 nM; at AHR [2], over 1000 nM.
As for `Clc1cccc(-c2csc(Nc3cccnc3)n2)c1` [Compound P-12], the EC50 is 10 to 100 nM at AHR [1] (HepG2, Table 2) and over 1000 nM at AHR [2].
Take `Clc1cccc(-c2csc(Nc3ccccn3)n2)c1` [Compound P-13]: the EC50 is 100 to 1000 nM on AHR [1] (HepG2, Table 2) and over 1000 nM at AHR [2].
As for `C[N+](C)(C)CCNC(=O)N(c1cccc(C(F)(F)F)c1)c1nc(-c2cccc([N+](=O)[O-])c2)cs1` [I-1], the EC50 on AHR [1] (HepG2, Table 2) is under 10 nM; on AHR [2] it was 10 to 100 nM.
For `C[N+](C)(CCNC(=O)N(c1cccc(C(F)(F)F)c1)c1nc(-c2cccc(Cl)c2)cs1)CCNC(=O)N(c1cccc(C(F)(F)F)c1)c1nc(-c2cccc(Cl)c2)cs1` [I-2] the same measures were under 10 nM and 100 to 1000 nM.
In the same order, the values of `C[N+](C)(CCO)CCNC(=O)N(c1cccc(C(F)(F)F)c1)c1nc(-c2cccc(Cl)c2)cs1` [I-3] are under 10 nM and 100 to 1000 nM.
For `C[N+](C)(CCO)CCNC(=O)N(c1cccc(C(F)(F)F)c1)c1nc(-c2cccc([N+](=O)[O-])c2)cs1` [I-4] the same measures were under 10 nM and 10 to 100 nM.
For the compound `FC(F)(F)c1cncc(Nc2nc(-c3cccc(Cl)c3)cs2)c1` [I-5], the EC50 is under 10 nM at AHR [1] (HepG2, Table 2) and over 1000 nM at AHR [2].
For `FC(F)(F)c1cccc(Nc2nc(-c3cccc(Cl)c3)cs2)n1` [I-6] the same measures were under 10 nM and over 1000 nM.
For the compound `O=[N+]([O-])c1cncc(-c2csc(Nc3cccc(C(F)(F)F)c3)n2)c1` [I-7], the half-maximal effective concentration (EC50) was under 10 nM at AHR [1] (HepG2, Table 2) and 100 to 1000 nM on AHR [2].
For `C[N+](C)(C)CCNC(=O)N(c1cccc(C(F)(F)F)c1)c1nc(-c2cccc(Cl)c2)cs1` [I-8], the half-maximal effective concentration (EC50) was under 10 nM at AHR [1] (HepG2, Table 2) and over 1000 nM on AHR [2].
As for `[O-][n+]1cccc(-c2csc(Nc3cccc(C(F)(F)F)c3)n2)c1` [I-9], the concentration giving a half-maximal response (EC50) on AHR [1] (HepG2, Table 2) was under 10 nM; at AHR [2], 10 to 100 nM.
For `Cc1ccc(-c2csc(Nc3cccc(C(F)(F)F)c3)n2)cc1[N+](=O)[O-]` [I-11] the same measures were under 10 nM and 100 to 1000 nM.
In the same order, the values of `FC(F)(F)c1cccc(Nc2nc(-c3ccc(Cl)c(Cl)c3)cs2)c1` [I-12] are under 10 nM and over 1000 nM.
Regarding `FC(F)(F)Oc1cccc(Nc2nc(-c3cccc(Cl)c3)cs2)c1` [I-13], the EC50 on AHR [1] (HepG2, Table 2) is under 10 nM; at AHR [2], over 1000 nM.
`N#Cc1cccc(-c2csc(Nc3cccc(C(F)(F)F)c3)n2)c1` [I-14]: the concentration giving a half-maximal response (EC50) on AHR [1] (HepG2, Table 2) was under 10 nM; at AHR [2], 10 to 100 nM.
For `Cc1c(-c2csc(Nc3cccc(C(F)(F)F)c3)n2)cccc1[N+](=O)[O-]` [I-15] the same measures were under 10 nM and over 1000 nM.
In the same order, the values of `C[N+](C)(CO)CCNC(=O)N(c1cccc(C(F)(F)F)c1)c1nc(-c2cccc(C#N)c2)cs1` [I-16] are under 10 nM and 100 to 1000 nM.
With `NC(=O)c1cncc(-c2csc(Nc3cccc(C(F)(F)F)c3)n2)c1` [I-17], the EC50 at AHR [1] (HepG2, Table 2) is under 10 nM; at AHR [2], 100 to 1000 nM.
For `Oc1cccc(-c2csc(Nc3cccc(C(F)(F)F)c3)n2)c1` [I-18] the same measures were under 10 nM and over 1000 nM.
In the same order, the values of `FC(F)(F)c1cccc(Nc2nc(-c3ccccc3Cl)cs2)c1` [I-19] are under 10 nM and over 1000 nM.
For `C[N+]1(CCNC(=O)N(c2cccc(C(F)(F)F)c2)c2nc(-c3cccc(Cl)c3)cs2)CCC(O)CC1` (stereo not shown) [I-20] the same measures were under 10 nM and over 1000 nM.
Regarding `[O-][n+]1cccc(-c2noc(Nc3cccc(C(F)(F)F)c3)n2)c1` [I-150], the 50% effective concentration (EC50) at AHR [1] (HepG2, Table 3) was over 1000 nM.
On the same count and under the same terms, under `N#Cc1cccc(-c2cc(Nc3cccc(C(F)(F)F)c3)no2)c1` [I-151] stands over 1000 nM.
